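Each compound was tested at five concentrations against cells in 96-well plates for 48 hours. GI50: concentration for 50% inhibition of growth. At the TGI there is no net growth.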
What follows are molecules tested on OVCAR-4 ovarian (assay: NCI tumour cell line growth inhibition, 48 h).
With `CCc1nc(Cl)c(Cl)c(Cl)n1` the TGI was > 100 µM. `O=C1C=CC(=CC=C2C=CN(CCCCCCCCCCC(=O)NCCCCCCCCCCCC(=O)O)C=C2)C=C1` was tested, and the TGI was > 100 µM. In the case of `N#Cc1c(-c2ccco2)cc(-c2ccc(N)cc2)[nH]c1=O`, the TGI is reported as > 100 µM. With `C=CCC1(C)CCCCC1(O)CS(=O)c1ccccc1` (stereo not drawn) the TGI was > 100 µM. In the case of `C1COCCSC2=C(SCCO1)SC(=C1SC3=C(SCCOCCOCCS3)S1)S2`, the TGI is reported as > 100 µM. `CC(C)(C)c1cc(C(=O)/C=C/c2ccc(C(=O)O)cc2)cc(C(C)(C)C)c1` was tested, and the TGI was 19 µM. `COc1cc(/C=N\O[Si](C)(C)C(C)(C)C)ccc1O[Si](C)(C)C(C)(C)C` was tested, and the TGI was > 100 µM. For `CC12CCC(=O)N1c1cccnc1N2` (stereo not drawn), the TGI was > 100 µM. For `COc1cc2c(cc1OC)C1Cc3cc(OC)c(OC)cc3N1CC2` (stereo not drawn), the TGI was 57.7 µM. `Cc1sc2c(c1C)C(c1ccc(Cl)cc1)=N[C@@H](CC(=O)Nc1ccc(OCCOCCOCCOCCNc3cccc4c3C(=O)N(C3CCC(=O)NC3=O)C4=O)cc1)c1nnc(C)n1-2` (stereo partly drawn) was tested, and the GI50 was < 0.0174 µM and the TGI was > 100 µM. For `CCOC(=O)C1=C(Nc2ccc(Br)cc2)OCC1=O`, the TGI was > 100 µM. For `CCOc1ccc(N=Cc2c3ccccc3nc3ccccc23)cc1`, the TGI was > 100 µM. In the case of `Nc1ccc(C2=N/C(=C\c3cccc(N)c3)C(=O)O2)cc1`, the TGI is reported as > 100 µM. For `CC(=O)[CH-]C(=O)c1ccccc1.CC(=O)[CH-]C(=O)c1ccccc1.O=S(=O)([O-])c1cc([O-])c2c([O-])cc(S(=O)(=O)[O-])cc2c1.[Na+].[Ti+4]`, the GI50 was 68.6 µM and the TGI was > 100 µM. Work on `Cc1cc(NCCCCNc2ccnc3cc(Cl)ccc23)nc(Nc2ccc(C(=O)N3CCCCC3)cc2)n1` yielded a GI50 of 1.6 µM and a TGI of 5.52 µM. In the case of `NCCN.O=C([O-])[O-].O=C([O-])[O-].[Co+3].[K+]`, the GI50 is reported as > 100 µM and the TGI is reported as > 100 µM. `C1=NC(N(Cc2ccccc2)Cc2ccccc2)N(Cc2ccccc2)N1` (stereo not drawn) showed a TGI of 36.7 µM.

The molecules below were run on UACC-62 melanoma (assay: NCI tumour cell line growth inhibition, 48 h).
In the case of `Cc1ccc(N2C(=O)N(c3ccc(C)cc3)C3(SC=NN3C)C2=O)cc1` (stereo not drawn), the TGI is reported as > 100 µM. Molecule `COc1ccc(-c2nn(-c3cccc(Cl)c3)cc2-c2nc(N)[nH]c(=O)c2C#N)cc1` has a GI50 of 3.33 µM and a TGI of 15.4 µM. For `O=C1c2ccc3c4ccccc4n(-c4ccccc4)c3c2C(=O)N1c1ccc(Cl)cc1`, the TGI was > 100 µM. `Cc1ccc2c(c1-c1ccccc1)C(=O)OC2` showed a TGI of 92.8 µM. Work on `CCC[CH2][Sn]1([CH2]CCC)[O]CC(COc2c(Cl)cc(Cl)cc2Cl)[O]1` (stereo not drawn) yielded a GI50 of 1.48 µM and a TGI of 2.86 µM. In the case of `NC(CCc1ncc(C(=O)O)s1)C(=O)O` (stereo not drawn), the TGI is reported as > 100 µM. `CSc1ccc2c(cc1=O)[C@@H](NC(=O)c1cc(O)c(O)c(O)c1)CCc1cc(O)c(O)c(O)c1-2` showed a TGI of 36.8 µM. In the case of `COC(=O)C(=O)CC(=O)c1cccc(OC)c1`, the TGI is reported as > 100 µM. For `COc1cc2c3c(n(CCCN(CCO)CCO)c(=O)c2cc1OC)-c1cc2c(cc1C3=O)OCO2`, the GI50 was < 0.01 µM and the TGI was 0.503 µM. With `O=C(CCN1CCOCC1)Nc1cccc(-n2cc(-c3ccncc3)c(-c3ccc(Cl)c(O)c3)n2)c1` the GI50 was 1.67 µM and the TGI was 13.6 µM. In the case of `COc1cc(-c2nnc3n2NC=C(C(=O)O)S3)cc(OC)c1OC`, the TGI is reported as > 100 µM. For `c1ccc(NCCSc2nc3ccccc3s2)cc1`, the TGI was > 100 µM. In the case of `Oc1ccc(Oc2cnc3ccccc3n2)cc1`, the GI50 is reported as > 100 µM and the TGI is reported as > 100 µM. In the case of `C[P+](C)(C)c1ccccc1`, the TGI is reported as > 100 µM. In the case of `O=C1c2ccccc2C(=O)N1C/C=N/NS(=O)(=O)c1ccc(Br)cc1`, the TGI is reported as > 100 µM. For `NC(=O)c1cn(Cc2ccccc2)c(=O)n1Cc1ccccc1`, the TGI was > 100 µM. Molecule `CCOC(=O)C(C)(c1c(C)[nH]c2ccccc12)c1c(C)[nH]c2ccccc12` has a TGI of 29.6 µM. `Cc1c(Cl)cccc1NC(=O)c1cccc([N+](=O)[O-])c1O` showed a TGI of 7.74 µM. For `CC1COS(=O)O1` (stereo not drawn), the TGI was > 100 µM. For `CC1CCC(C(C)(C)c2ccccc2)C(=O)C1` (stereo not drawn), the TGI was > 100 µM. With `O=C(NC1CCCCC1)c1ccc(Nc2ncnc3c2cnn3-c2ccccc2)cc1` the GI50 was 17.5 µM and the TGI was > 100 µM. With `O=C1CC2CCN(C(=O)c3ccccc3)CC2CCN1` (stereo not drawn) the TGI was > 100 µM. For `N#CC(C#N)=C1CCCOc2c1ccc1ccccc21`, the GI50 was > 100 µM and the TGI was > 100 µM. With `CCc1nc(Cl)c(Cl)c(Cl)n1` the TGI was > 100 µM. For `O=C1C=CC(=CC=C2C=CN(CCCCCCCCCCC(=O)NCCCCCCCCCCCC(=O)O)C=C2)C=C1`, the TGI was > 100 µM. With `N#Cc1c(-c2ccco2)cc(-c2ccc(N)cc2)[nH]c1=O` the TGI was > 100 µM. For `C=CCC1(C)CCCCC1(O)CS(=O)c1ccccc1` (stereo not drawn), the TGI was > 100 µM. With `C1COCCSC2=C(SCCO1)SC(=C1SC3=C(SCCOCCOCCS3)S1)S2` the TGI was > 100 µM. `CC(C)(C)c1cc(C(=O)/C=C/c2ccc(C(=O)O)cc2)cc(C(C)(C)C)c1` gave a TGI of 4.67 µM. With `COc1cc(/C=N\O[Si](C)(C)C(C)(C)C)ccc1O[Si](C)(C)C(C)(C)C` the TGI was > 100 µM. In the case of `CC12CCC(=O)N1c1cccnc1N2` (stereo not drawn), the TGI is reported as > 100 µM. `COc1cc2c(cc1OC)C1Cc3cc(OC)c(OC)cc3N1CC2` (stereo not drawn) was tested, and the TGI was > 100 µM. In the case of `Cc1sc2c(c1C)C(c1ccc(Cl)cc1)=N[C@@H](CC(=O)Nc1ccc(OCCOCCOCCOCCNc3cccc4c3C(=O)N(C3CCC(=O)NC3=O)C4=O)cc1)c1nnc(C)n1-2` (stereo partly drawn), the GI50 is reported as < 0.0462 µM and the TGI is reported as > 100 µM. In the case of `CCOC(=O)C1=C(Nc2ccc(Br)cc2)OCC1=O`, the TGI is reported as > 100 µM. In the case of `CCOc1ccc(N=Cc2c3ccccc3nc3ccccc23)cc1`, the TGI is reported as > 100 µM. For `Nc1ccc(C2=N/C(=C\c3cccc(N)c3)C(=O)O2)cc1`, the TGI was > 100 µM. For `CC(=O)[CH-]C(=O)c1ccccc1.CC(=O)[CH-]C(=O)c1ccccc1.O=S(=O)([O-])c1cc([O-])c2c([O-])cc(S(=O)(=O)[O-])cc2c1.[Na+].[Ti+4]`, the GI50 was > 100 µM and the TGI was > 100 µM. In the case of `NCCN.O=C([O-])[O-].O=C([O-])[O-].[Co+3].[K+]`, the GI50 is reported as > 100 µM and the TGI is reported as > 100 µM. Molecule `C1=NC(N(Cc2ccccc2)Cc2ccccc2)N(Cc2ccccc2)N1` (stereo not drawn) has a TGI of 27.2 µM.

What follows are molecules tested on SF-539 CNS (assay: NCI tumour cell line growth inhibition, 48 h).
`CCc1cccc(C)c1NC(=O)CC1C(=O)Nc2ccccc2S1=O` (stereo not drawn) gave a TGI of 79.2 µM. In the case of `Cc1ccc(N2C(=O)N(c3ccc(C)cc3)C3(SC=NN3C)C2=O)cc1` (stereo not drawn), the TGI is reported as > 100 µM. For `COc1ccc(-c2nn(-c3cccc(Cl)c3)cc2-c2nc(N)[nH]c(=O)c2C#N)cc1`, the GI50 was 6.59 µM and the TGI was 32.2 µM. For `O=C1c2ccc3c4ccccc4n(-c4ccccc4)c3c2C(=O)N1c1ccc(Cl)cc1`, the TGI was > 100 µM. `CCC[CH2][Sn]1([CH2]CCC)[O]CC(COc2c(Cl)cc(Cl)cc2Cl)[O]1` (stereo not drawn) showed a GI50 of 1.64 µM and a TGI of 3.43 µM. `NC(CCc1ncc(C(=O)O)s1)C(=O)O` (stereo not drawn) was tested, and the TGI was > 100 µM. Work on `CSc1ccc2c(cc1=O)[C@@H](NC(=O)c1cc(O)c(O)c(O)c1)CCc1cc(O)c(O)c(O)c1-2` yielded a TGI of 52.3 µM. In the case of `COC(=O)C(=O)CC(=O)c1cccc(OC)c1`, the TGI is reported as > 100 µM. `COc1cc2c3c(n(CCCN(CCO)CCO)c(=O)c2cc1OC)-c1cc2c(cc1C3=O)OCO2` was tested, and the GI50 was < 0.01 µM and the TGI was < 0.0264 µM. With `CNCCn1c(=O)c2cc(OC)c(OC)cc2c2cnc3cc4c(cc3c21)OCO4` the GI50 was < 0.01 µM and the TGI was 0.0103 µM. `O=C(CCN1CCOCC1)Nc1cccc(-n2cc(-c3ccncc3)c(-c3ccc(Cl)c(O)c3)n2)c1` showed a GI50 of 1.77 µM and a TGI of 3.72 µM. With `COc1cc(-c2nnc3n2NC=C(C(=O)O)S3)cc(OC)c1OC` the TGI was > 61.4 µM. With `Oc1ccc(Oc2cnc3ccccc3n2)cc1` the GI50 was 77.2 µM and the TGI was > 100 µM. For `C[P+](C)(C)c1ccccc1`, the TGI was > 100 µM. For `O=C1c2ccccc2C(=O)N1C/C=N/NS(=O)(=O)c1ccc(Br)cc1`, the TGI was > 100 µM. In the case of `NC(=O)c1cn(Cc2ccccc2)c(=O)n1Cc1ccccc1`, the TGI is reported as > 100 µM. In the case of `CCOC(=O)C(C)(c1c(C)[nH]c2ccccc12)c1c(C)[nH]c2ccccc12`, the TGI is reported as 39.1 µM. Work on `Cc1c(Cl)cccc1NC(=O)c1cccc([N+](=O)[O-])c1O` yielded a TGI of 40.6 µM. In the case of `CC1COS(=O)O1` (stereo not drawn), the TGI is reported as > 100 µM. With `CC1CCC(C(C)(C)c2ccccc2)C(=O)C1` (stereo not drawn) the TGI was > 100 µM. Work on `O=C(NC1CCCCC1)c1ccc(Nc2ncnc3c2cnn3-c2ccccc2)cc1` yielded a GI50 of 3.81 µM and a TGI of 17.1 µM. For `O=C1CC2CCN(C(=O)c3ccccc3)CC2CCN1` (stereo not drawn), the TGI was > 100 µM. In the case of `N#CC(C#N)=C1CCCOc2c1ccc1ccccc21`, the GI50 is reported as > 100 µM and the TGI is reported as > 100 µM. In the case of `CCc1nc(Cl)c(Cl)c(Cl)n1`, the TGI is reported as > 100 µM. For `O=C1C=CC(=CC=C2C=CN(CCCCCCCCCCC(=O)NCCCCCCCCCCCC(=O)O)C=C2)C=C1`, the TGI was > 100 µM.

— PubChem BioAssay (NCI)
